{
  "source": "patent US20250360130A1",
  "about": "“METHODS OF TREATING INDOLENT SYSTEMIC MASTOCYTOSIS” (Telios Pharma Inc., priority 2024, published 2025)",
  "key": {"basophils": {"system": "basophils", "test": "Inhibition of basophil activation (BAT, CD63) in ISM patients", "format": "in vivo, human", "procedure": "The BAT was conducted as set forth in Santos (2021) Allergy, 76:2420-2432. Blood from six healthy donors was drawn and Compound 128 was added at various concentrations (10 μM, 3.16 μM, 1 μM, 0.3 μM, 0.1 μM, 0.03 μM, or 0 μM). Blood samples were gently rocked at room temperature for 2 hours, 24 hours, or 48 hours. The BAT assay using the Flow Cast Basophil Activation Kit (Buhlmann Diagnostics; Catalog #B-CCR-STCON) was then conducted following manufacturer instructions by (1) stimulating the blood with anti-FcεR stimulation control in stimulation buffer with IL-3 and staining cells for CCR3 and CD63 for 15 minutes at 37° C., (2) lysing red blood cells and fixing cells with Lysing Reagent at room temperature for 10 minutes, (3) washing cells with Wash Buffer, and (4) acquiring data on a flow cytometer. Activated basophils were defined as CCR3+, low side scatter and CD63+. Percent of activated basophils was calculated as number of activated basophils over the total number of basophils. A four-parameter logistic regression was applied to determine the EC50 and EC90. […]\nThe BAT assay measuring CD63 used the Flow Cast Basophil Activation Kit method and percent activated basophils were calculated as described in Example 1. Percent inhibition of CD63 activation was calculated as (100−(Sample condition−Unstimulated DMSO control)/(Stimulated DMSO control−Unstimulated DMSO control)×100)."}, "MRGPRX2": {"system": "MRGPRX2", "test": "MRGPRX2-mediated cytokine production in ISM-like mast cells", "format": "cell-based, human", "procedure": "Human mast cells were differentiated from bone marrow CD34+ cells from four healthy donors and were cultured in the presence of SCF (100 ng/mL) to mimic mast cells in ISM and treated with Compound 128 for two hours prior to stimulation. Mas-related G protein-coupled receptor (MRGPRX2) agonists, Compound 48/80 (C48/80; a product of N-methyl-p-methoxyphenethylamine with formaldehyde) or Substance P (SP) were used to activate the MRGPRX2 pathway. For pBTK test, cells were stimulated with C48/80 (10 μg/mL) for ten minutes at 37° C. and cells were stained. The median fluorescence intensity of phosphorylated BTK was measured. The fold change over unstimulated control for pBTK was calculated. For cytokine test, cells were stimulated with C48/80 (10 μg/mL) or SP (30 μM) for four hours at 37° C. Supernatant was collected and cytokine levels were measured using the BD Cytometric Bead Array (CBA) human soluble protein master buffer kit (Becton Dickinson) and BD CBA human soluble protein flex sets for IL-8, MCP-1, GM-CSF and IL-13 (Becton Dickinson). Cytokine levels were measured and normalized to percent of control, with 0% representing the level of the unstimulated control."}, "[1]": {"system": "mast cells derived from ISM patients", "test": "Degranulation of mast cells grown from CD34+ blood cells from ISM patients (FIG. 22)", "format": "cell-based, human", "conditions": "antigen stimulation in absence of SCF"}, "BTK": {"target": "BTK (Homo sapiens, UniProt Q06187)", "sequence (Q06187 whole entry)": "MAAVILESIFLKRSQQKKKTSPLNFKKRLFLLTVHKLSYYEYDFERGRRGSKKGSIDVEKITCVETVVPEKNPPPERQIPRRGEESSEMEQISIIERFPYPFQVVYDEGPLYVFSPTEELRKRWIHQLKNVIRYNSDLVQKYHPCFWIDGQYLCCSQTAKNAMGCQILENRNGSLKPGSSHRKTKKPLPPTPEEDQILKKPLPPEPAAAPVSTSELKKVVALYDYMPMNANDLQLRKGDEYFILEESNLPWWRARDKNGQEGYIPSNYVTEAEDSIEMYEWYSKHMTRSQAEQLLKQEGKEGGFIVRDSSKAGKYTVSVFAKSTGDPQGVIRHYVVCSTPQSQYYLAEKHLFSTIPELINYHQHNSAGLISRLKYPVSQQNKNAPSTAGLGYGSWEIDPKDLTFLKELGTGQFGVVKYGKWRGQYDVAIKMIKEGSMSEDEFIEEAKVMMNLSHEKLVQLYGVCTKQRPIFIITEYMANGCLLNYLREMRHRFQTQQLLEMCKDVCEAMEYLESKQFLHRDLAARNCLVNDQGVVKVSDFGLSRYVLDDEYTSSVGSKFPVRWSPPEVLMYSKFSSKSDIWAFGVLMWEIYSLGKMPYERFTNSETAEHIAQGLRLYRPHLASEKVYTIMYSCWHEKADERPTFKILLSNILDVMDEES", "test": "Phospho-BTK (pBTK) test in basophils, whole blood", "format": "cell-based", "parameters": "Human mast cells were differentiated from bone marrow CD34+ cells from six healthy donors; endogenous in cells; host or cells: human mast cells differentiated from bone marrow CD34+ cells of healthy donors, cultured with SCF", "conditions": "24 hours exposure, CCR3+ basophils, anti-FcεR stimulation; read-out: average EC50 (n=4), pBTK (Y223) normalized to DMSO control", "procedure": "Blood from four healthy donors was drawn and Compound 128 was added at various concentrations (10 µM, 3.16 μM, 1 μM, 0.3 μM, 0.1 μM, 0.03 μM, or 0 μM). Blood samples were gently rocked at room temperature for 24 hours. The pBTK test was then conducted by (1) stimulating the blood with anti-FcεR stimulation control from Flow Cast Basophil Activation Kit and staining cells for CCR3 (Becton Dickinson) and a near-IR dead cell stain (nIR; Invitrogen) for 15 minutes at 37° C., (2) lysing red blood cells and fixing cells with Phosflow Lyse/Fix Buffer (Becton Dickinson) at 37° C. for 10 minutes, (3) washing once with 1× phosphate-buffered saline (PBS), (4) washing twice with Perm/Wash buffer (Becton Dickinson), (5) permeabilizing cells with Perm/Wash buffer on ice for 15 minutes, (6) staining cells for rabbit anti-human pBTK (Abcam) for 30 minutes on ice, (7) washing twice with Perm/Wash buffer, (8) staining with goat anti-rabbit secondary antibody (Invitrogen) for 30 minutes on ice, (9) washing twice with Perm/Wash buffer, and (10) acquiring data on a flow cytometer. Live basophils were defined as nIR−, CCR3+ and low side scatter. The median fluorescence intensity of phosphorylated BTK was measured and percent of stimulated control was calculated. […] The percent of stimulated control of activated mast cells (CD63+) was calculated. […]"}},
  "note": "pEC50: −log10 of the molar value.",
  "data": [
    {"compound": "C=CC(=O)N1CCC(F)(CNc2ncnc(N)c2-c2ccc(Oc3ccccc3)cc2)CC1", "note": "[Compound 128, 1-(4-(((6-amino-5-(4-phenoxyphenyl)pyrimidin-4-yl)amino)methyl)-4-fluoropiperidin-1-yl)prop-2-en-1-one]", "values": [
      {"measurement": "inhibition of basophil activation", "setting": "basophils; 100 mg or 150 mg BID", "result": "effective in inhibiting basophil activation"},
      {"measurement": "percent inhibition of CD63 activation of basophils, dose dependence", "setting": "basophils; 50, 75, 100 or 150 mg BID versus placebo", "result": "greater inhibition of basophil activation is achieved in ISM patients with greater dosing"},
      {"measurement": "MRGPRX2-mediated cytokine production", "setting": "MRGPRX2; 0.1 μM", "result": "partially inhibited"},
      {"measurement": "MRGPRX2-mediated cytokine production", "setting": "MRGPRX2; 0.5 and 1 μM", "result": "inhibition of cytokine production was increased"},
      {"measurement": "C48/80-mediated cytokine production", "setting": "MRGPRX2; Compound 48/80 agonist", "result": "partial inhibition"},
      {"measurement": "SP-mediated cytokine production", "setting": "MRGPRX2; Substance P (SP) agonist", "result": "fully inhibited"},
      {"measurement": "degranulation of ISM patient-derived mast cells", "setting": "[1]", "result": "inhibited the degranulation"},
      {"measurement": "pEC50", "setting": "BTK", "result": 6.89}
    ]}
  ]
}
